Measurements taken from patent US20120121591A1 (priority 2009, published 2012).

Legend:
Assay type in all cases: cell-based
[1] = biological target: hKv1.3 (Homo sapiens, UniProt P22001); experiment: cell-based; details: Kv1.3 (IWQ) IC50 (nM, Avg)
[2] = test system: IL-2 secretion from T cells in human whole blood; details: read-out: WB (IL-2) IC50 (nM, Avg)
[3] = test system: IFN-g secretion from T cells in human whole blood; details: read-out: WB (IFNg) IC50 (nM, Avg)

Chain of hKv1.3 (P22001 whole entry): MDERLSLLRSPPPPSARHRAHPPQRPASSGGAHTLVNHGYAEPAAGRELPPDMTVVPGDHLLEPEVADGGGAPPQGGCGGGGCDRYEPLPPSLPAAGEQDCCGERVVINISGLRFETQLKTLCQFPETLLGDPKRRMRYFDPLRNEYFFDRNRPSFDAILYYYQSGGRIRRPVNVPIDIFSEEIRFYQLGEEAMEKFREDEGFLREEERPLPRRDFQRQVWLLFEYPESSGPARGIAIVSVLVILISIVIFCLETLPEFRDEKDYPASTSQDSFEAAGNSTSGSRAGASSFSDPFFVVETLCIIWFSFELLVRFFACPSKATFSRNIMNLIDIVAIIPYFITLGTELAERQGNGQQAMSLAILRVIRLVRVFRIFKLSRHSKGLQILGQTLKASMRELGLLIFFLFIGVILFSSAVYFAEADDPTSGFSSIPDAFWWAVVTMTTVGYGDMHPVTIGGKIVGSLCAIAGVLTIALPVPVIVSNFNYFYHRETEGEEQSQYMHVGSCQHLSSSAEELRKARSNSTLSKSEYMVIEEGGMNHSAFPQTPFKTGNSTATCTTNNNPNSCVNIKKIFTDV

SMILES	IC50 [1]	IC50 [2]	IC50 [3]
CC[C@H](C)[C@@H]1NC(=O)[C@@H](NC(=O)[C@H](CO)NC(=O)[C@@H](N)CCCNC(=N)N)CSSC[C@@H](C(N)=O)NC(=O)[C@H]([C@@H](C)O)NC(=O)CNC(=O)[C@@H]2CSSC[C@@H]3NC(=O)[C@H](CCCCN)NC(=O)[C@H](Cc4ccccc4)NC(=O)[C@H](C)NC(=O)[C@H]([C@@H](C)O)NC(=O)[C@H](CSSC[C@H](NC(=O)[C@H](Cc4ccc(O)cc4)NC(=O)[C@H](CO)NC(=O)[C@H](CC(C)C)NC(=O)[C@H](CCCNC(=N)N)NC(=O)[C@H](Cc4ccc(O)cc4)NC(=O)[C@H](CCCCN)NC(=O)[C@H](CCSC)NC(=O)[C@H](CO)NC(=O)[C@H](Cc4c[nH]cn4)NC(=O)[C@H](CCCCN)NC3=O)C(=O)N[C@@H](CCCCN)C(=O)N[C@@H](CCCCN)C(=O)N[C@@H]([C@@H](C)O)C(=O)N2)NC(=O)[C@H](CCCNC(=N)N)NC(=O)[C@H](CO)NC(=O)[C@H](CCCCN)NC(=O)[C@@H]2CCCN2C(=O)[C@H]([C@@H](C)CC)NC(=O)[C@H]([C@@H](C)O)NC(=O)[C@H](CC(=O)O)NC1=O [[Lys16,29;Tyr27]ShK-amide]	0.042 nM	0.738 nM	1.17 nM
CC[C@H](C)[C@@H]1NC(=O)[C@@H](NC(=O)[C@H](CO)NC(=O)[C@@H](N)CCCNC(=N)N)CSSC[C@@H](C(=O)O)NC(=O)[C@H]([C@@H](C)O)NC(=O)CNC(=O)[C@@H]2CSSC[C@@H]3NC(=O)[C@H](CCC(N)=O)NC(=O)[C@H](Cc4ccccc4)NC(=O)[C@H](C)NC(=O)[C@H]([C@@H](C)O)NC(=O)[C@H](CSSC[C@H](NC(=O)[C@H](Cc4ccccc4)NC(=O)[C@H](CO)NC(=O)[C@H](CC(C)C)NC(=O)[C@H](CCCNC(=N)N)NC(=O)[C@H](Cc4ccc(O)cc4)NC(=O)[C@H](CCCCN)NC(=O)[C@H](CCCCN)NC(=O)[C@H](CO)NC(=O)[C@H](Cc4c[nH]cn4)NC(=O)[C@H](CCCCN)NC3=O)C(=O)N[C@@H](CCCNC(=N)N)C(=O)N[C@@H](CCCCN)C(=O)N[C@@H]([C@@H](C)O)C(=O)N2)NC(=O)[C@H](CCCNC(=N)N)NC(=O)[C@H](CO)NC(=O)[C@H](CCCCN)NC(=O)[C@@H]2CCCN2C(=O)[C@H]([C@@H](C)CC)NC(=O)[C@H]([C@@H](C)O)NC(=O)[C@H](CC(=O)O)NC1=O [[Lys21]ShK]	0.822 nM	3.59 nM	4.82 nM
CC[C@H](C)[C@@H]1NC(=O)[C@@H](NC(=O)[C@H](CO)NC(=O)[C@@H](N)CCCNC(=N)N)CSSC[C@@H](C(=O)O)NC(=O)[C@H](C)NC(=O)CNC(=O)[C@@H]2CSSC[C@@H]3NC(=O)[C@H](CCC(N)=O)NC(=O)[C@H](Cc4ccccc4)NC(=O)[C@H](C)NC(=O)[C@H]([C@@H](C)O)NC(=O)[C@H](CSSC[C@H](NC(=O)[C@H](Cc4ccccc4)NC(=O)[C@H](CO)NC(=O)[C@H](CC(C)C)NC(=O)[C@H](CCCNC(=N)N)NC(=O)[C@H](Cc4ccc(O)cc4)NC(=O)[C@H](CCCCN)NC(=O)[C@H](CCSC)NC(=O)[C@H](CO)NC(=O)[C@H](Cc4c[nH]cn4)NC(=O)[C@H](CCCCN)NC3=O)C(=O)N[C@@H](CCCNC(=N)N)C(=O)N[C@@H](CCCCN)C(=O)N[C@@H]([C@@H](C)O)C(=O)N2)NC(=O)[C@H](CCCNC(=N)N)NC(=O)[C@H](CO)NC(=O)[C@H](CCCCN)NC(=O)[C@@H]2CCCN2C(=O)[C@H]([C@@H](C)CC)NC(=O)[C@H]([C@@H](C)O)NC(=O)[C@H](CC(=O)O)NC1=O [[Ala34]ShK]	0.123 nM	0.063 nM	0.075 nM
CC[C@H](C)[C@@H]1NC(=O)[C@@H](NC(=O)[C@H](CO)NC(=O)[C@@H](N)CCCNC(=N)N)CSSC[C@@H](C(=O)O)NC(=O)[C@H]([C@@H](C)O)NC(=O)CNC(=O)[C@@H]2CSSC[C@@H]3NC(=O)[C@H](CCC(N)=O)NC(=O)[C@H](Cc4ccccc4)NC(=O)[C@H](C)NC(=O)[C@H]([C@@H](C)O)NC(=O)[C@H](CSSC[C@H](NC(=O)[C@H](Cc4ccccc4)NC(=O)[C@H](CO)NC(=O)[C@H](CC(C)C)NC(=O)[C@H](CCCNC(=N)N)NC(=O)[C@H](Cc4ccc(O)cc4)NC(=O)[C@H](CCCCN)NC(=O)[C@H](CCCNC(=N)N)NC(=O)[C@H](CO)NC(=O)[C@H](Cc4c[nH]cn4)NC(=O)[C@H](CCCCN)NC3=O)C(=O)N[C@@H](CCCNC(=N)N)C(=O)N[C@@H](CCCCN)C(=O)N[C@@H]([C@@H](C)O)C(=O)N2)NC(=O)[C@H](CCCNC(=N)N)NC(=O)[C@H](CO)NC(=O)[C@H](CCCCN)NC(=O)[C@@H]2CCCN2C(=O)[C@H]([C@@H](C)CC)NC(=O)[C@H]([C@@H](C)O)NC(=O)[C@H](CC(=O)O)NC1=O [[Arg21]ShK]	0.283 nM	1.76 nM	4.66 nM
CC[C@H](C)[C@@H]1NC(=O)[C@@H](NC(=O)[C@H](CO)NC(=O)[C@@H](N)CCCNC(=N)N)CSSC[C@@H](C(=O)O)NC(=O)[C@H]([C@@H](C)O)NC(=O)CNC(=O)[C@@H]2CSSC[C@@H]3NC(=O)[C@H](CCC(N)=O)NC(=O)[C@H](Cc4ccccc4)NC(=O)[C@H](C)NC(=O)[C@H]([C@@H](C)O)NC(=O)[C@H](CSSC[C@H](NC(=O)[C@H](Cc4ccccc4)NC(=O)[C@H](CO)NC(=O)[C@H](CC(C)C)NC(=O)[C@H](CCCNC(=N)N)NC(=O)[C@H](Cc4ccc(O)cc4)NC(=O)[C@H](CCCCN)NC(=O)[C@H](CCSC)NC(=O)[C@H](CO)NC(=O)[C@H](Cc4c[nH]cn4)NC(=O)[C@H](CCCCN)NC3=O)C(=O)N[C@@H](CCCNC(=N)N)C(=O)N[C@@H](CCCCN)C(=O)N[C@@H]([C@@H](C)O)C(=O)N2)NC(=O)[C@H](CCCNC(=N)N)NC(=O)[C@H](CCCCN)NC(=O)[C@H](CCCCN)NC(=O)[C@@H]2CCCN2C(=O)[C@H]([C@@H](C)CC)NC(=O)[C@H]([C@@H](C)O)NC(=O)[C@H](CC(=O)O)NC1=O [[Lys10]ShK]	0.174 nM	0.052 nM	0.082 nM
CCC[C@@H]1NC(=O)[C@H](CO)NC(=O)[C@H](Cc2c[nH]cn2)NC(=O)[C@H](CCCCN)NC(=O)[C@@H]2CSSC[C@@H]3NC(=O)[C@H]([C@@H](C)O)NC(=O)[C@H](CCCCN)NC(=O)[C@H](CCCNC(=N)N)NC(=O)[C@H](CSSC[C@H](NC(=O)[C@H](CCCNC(=N)N)NC(=O)[C@H](CO)NC(=O)[C@H](CCCCN)NC(=O)[C@@H]4CCCN4C(=O)[C@H]([C@@H](C)CC)NC(=O)[C@H]([C@@H](C)O)NC(=O)[C@H](CC(=O)O)NC(=O)[C@H]([C@@H](C)CC)NC(=O)[C@@H](NC(=O)[C@H](CO)NC(=O)[C@@H](N)CCCNC(=N)N)CSSC[C@@H](C(=O)NCCC(=O)O)NC(=O)[C@H]([C@@H](C)O)NC(=O)CNC3=O)C(=O)N[C@@H]([C@@H](C)O)C(=O)N[C@@H](C)C(=O)N[C@@H](Cc3ccccc3)C(=O)N[C@@H](CCCCN)C(=O)N2)NC(=O)[C@H](Cc2ccccc2)NC(=O)[C@H](CO)NC(=O)[C@H](CC(C)C)NC(=O)[C@H](CCCNC(=N)N)NC(=O)[C@H](Cc2ccc(O)cc2)NC(=O)[C@H](CCCCN)NC1=O [[Lys16,Nva21]ShK-betaAla]	12.6 nM	0.304 nM	0.231 nM
CC[C@H](C)[C@@H]1NC(=O)[C@@H](NC(=O)[C@H](CO)NC(=O)[C@@H](N)CCCNC(=N)N)CSSC[C@@H](C(N)=O)NC(=O)[C@H]([C@@H](C)O)NC(=O)CNC(=O)[C@@H]2CSSC[C@@H]3NC(=O)[C@H](CCCCN)NC(=O)[C@H](Cc4ccccc4)NC(=O)[C@H](C)NC(=O)[C@H]([C@@H](C)O)NC(=O)[C@H](CSSC[C@H](NC(=O)[C@H](Cc4ccc5ccccc5c4)NC(=O)[C@H](CO)NC(=O)[C@H](CC(C)C)NC(=O)[C@H](CCCNC(=N)N)NC(=O)[C@H](Cc4ccc(O)cc4)NC(=O)[C@H](CCCCN)NC(=O)[C@H](CCSC)NC(=O)[C@H](CO)NC(=O)[C@H](Cc4c[nH]cn4)NC(=O)[C@H](CCCCN)NC3=O)C(=O)N[C@@H](CCCCN)C(=O)N[C@@H](CCCCN)C(=O)N[C@@H]([C@@H](C)O)C(=O)N2)NC(=O)[C@H](CCCNC(=N)N)NC(=O)[C@H](CO)NC(=O)[C@H](CCCCN)NC(=O)[C@@H]2CCCN2C(=O)[C@H]([C@@H](C)CC)NC(=O)[C@H]([C@@H](C)O)NC(=O)[C@H](CC(=O)O)NC1=O [[Lys16, 29;2-Nal27]ShK-amide]	10.1 nM	13.1 nM	24.7 nM
CC[C@H](C)[C@@H]1NC(=O)[C@@H](NC(=O)[C@H](CO)NC(=O)[C@@H](N)CCCNC(=N)N)CSSC[C@@H](C(=O)O)NC(=O)[C@H]([C@@H](C)O)NC(=O)CNC(=O)[C@@H]2CSSC[C@@H]3NC(=O)[C@H](CCC(N)=O)NC(=O)[C@H](Cc4ccccc4)NC(=O)[C@H](CCCNC(=N)N)NC(=O)[C@H]([C@@H](C)O)NC(=O)[C@H](CSSC[C@H](NC(=O)[C@H](Cc4ccccc4)NC(=O)[C@H](CO)NC(=O)[C@H](CC(C)C)NC(=O)[C@H](CCCNC(=N)N)NC(=O)[C@H](Cc4ccc(O)cc4)NC(=O)[C@H](CCCCN)NC(=O)[C@H](CCSC)NC(=O)[C@H](CO)NC(=O)[C@H](Cc4c[nH]cn4)NC(=O)[C@H](CCCCN)NC3=O)C(=O)N[C@@H](CCCNC(=N)N)C(=O)N[C@@H](CCCCN)C(=O)N[C@@H]([C@@H](C)O)C(=O)N2)NC(=O)[C@H](CCCNC(=N)N)NC(=O)[C@H](CO)NC(=O)[C@H](CCCCN)NC(=O)[C@@H]2CCCN2C(=O)[C@H]([C@@H](C)CC)NC(=O)[C@H]([C@@H](C)O)NC(=O)[C@H](CC(=O)O)NC1=O [[Arg14]ShK]	0.077 nM	0.266 nM	0.307 nM
CC[C@H](C)[C@@H]1NC(=O)[C@@H](NC(=O)[C@H](CO)NC(=O)[C@@H](N)CCCNC(=N)N)CSSC[C@@H](C(=O)O)NC(=O)[C@H]([C@@H](C)O)NC(=O)CNC(=O)[C@@H]2CSSC[C@@H]3NC(=O)[C@H](CCC(N)=O)NC(=O)[C@H](Cc4ccccc4)NC(=O)[C@H](C)NC(=O)[C@H]([C@@H](C)O)NC(=O)[C@H](CSSC[C@H](NC(=O)[C@H](Cc4ccccc4)NC(=O)[C@H](CO)NC(=O)[C@H](CC(C)C)NC(=O)[C@H](CCCNC(=N)N)NC(=O)[C@H](Cc4ccc(O)cc4)NC(=O)[C@H](CCCCN)NC(=O)[C@H](CCSC)NC(=O)[C@H](CO)NC(=O)[C@H](Cc4c[nH]cn4)NC(=O)[C@H](CCCCN)NC3=O)C(=O)N[C@@H](CCCNC(=N)N)C(=O)N[C@@H](CCCCN)C(=O)N[C@@H]([C@@H](C)O)C(=O)N2)NC(=O)[C@H](CCCNC(=N)N)NC(=O)[C@H](CO)NC(=O)[C@H](CCCCN)NC(=O)[C@@H]2CCCN2C(=O)[C@H](Cc2cccc3ccccc23)NC(=O)[C@H]([C@@H](C)O)NC(=O)[C@H](CC(=O)O)NC1=O [[1-Nal7]ShK]	0.699 nM	11.6 nM	18 nM
